One data set relates to MATE1. Description: Transporter substrate, MATE1. The note with it: role: substrate. It counts as in vitro ADME. The method, then:
(§1) Additionally, compound 760 was tested for its capability to act as a transporter substrate for various transporters, and was not found to be a transporter substrate for any of the tested transporters.

A further data set relates to GABAA. As to the kind of experiment: Functional selectivity panel, GABAA. Type of data set: biochemical. The settings on record: up to 10 micromolar. Here is the method:
(§2) A broad panel of 78 recombinant targets was tested for pharmacologic activity in vitro through a variety of functional assays (Eurofins DiscoverX, USA), as part of the National Institute of Neurological Disorders and Stroke (NINDS) Preclinical Screening Platform for Pain (PSPP) program. The biological targets for the in vitro profiling have been selected based on avoiding opioid receptor stimulation and targets known to be associated with adverse events or targeted by drugs of abuse. […] For each test, a reference compound was evaluated at the target of interest as a positive control.

The next data set concerns the target OCT2 (Homo sapiens, UniProt O15244). As to the kind of experiment: Transporter substrate, OCT2. Type of data set: in vitro ADME. The note with it: role: substrate. Here is the method: as §1
The target in another data set is T1, dopamine D2 (Homo sapiens, UniProt P14416).
T1 construct: Eurofins DiscoverX, USA
T1 sequence (P14416 whole entry): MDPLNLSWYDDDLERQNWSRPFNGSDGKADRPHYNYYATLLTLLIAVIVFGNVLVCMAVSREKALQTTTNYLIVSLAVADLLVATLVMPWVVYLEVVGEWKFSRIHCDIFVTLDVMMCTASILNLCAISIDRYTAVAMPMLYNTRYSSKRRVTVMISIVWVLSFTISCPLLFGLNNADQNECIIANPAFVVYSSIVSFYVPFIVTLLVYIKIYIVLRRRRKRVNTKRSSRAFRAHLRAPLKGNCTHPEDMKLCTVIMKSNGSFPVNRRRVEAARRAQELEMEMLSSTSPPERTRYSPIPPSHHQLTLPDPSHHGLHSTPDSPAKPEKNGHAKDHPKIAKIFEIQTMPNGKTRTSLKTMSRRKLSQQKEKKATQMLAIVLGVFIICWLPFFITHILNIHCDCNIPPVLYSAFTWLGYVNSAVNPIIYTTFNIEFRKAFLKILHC
As to the kind of experiment: Functional selectivity panel, dopamine D2. It counts as biochemical. Here is the method: as §2

In data set [1] the test system is Post-operative Pain (POP) rats. Description: Post-operative Pain model, thermal. Type of data set: in vivo, rat. The settings on record: 100 mg/kg, 6 hours post-dose. The method, then: (§3) All animal experiments were carried out according to the Guide for the Care and Use of Laboratory Animals (2011 edition) and approved by the Israel National Institutional Animal Care and Use Committee (IACUC). Young adult male SD rats (Envigo RMS, Israel), were used for in vivo efficacy: Spared Nerve Injury (SNI), Distal Tibial Injury (DTI) and Post-operative Pain (POP), 200-220 grams, Chronic Post-Ischemia Pain (CPIP) 275-325 grams, Monosodium iodoacetate-induced osteoarthritis (MIA-OA) 180-220 grams; for in vivo safety: 200-250 grams at study initiation. […] The health status of the animals used in this study was examined upon their arrival. Only animals in good health were acclimatized to laboratory conditions and were used in the studies. All studies were performed following at least five days of animal acclimation. […] Water was monitored periodically. […]
Post-operative Pain (POP): For this model, animals were anesthetized by medetomidine/ketamine sodium IP. […] On the following day, animal responses to von Frey (VF) filaments and hot-plate testing were recorded.
Hot Plate: Animals were placed on hot plate analgesia meter (IITC Life Science Inc., CA, USA) set to 53±1° C., and the time until the first escape response was observed was recorded. […]

The next data set concerns HepG2 cells. Description: HepG2 toxicity, ATPlite. Type of data set: cell-based, human. The settings on record: up to limit of solubility. Here is the method: Cell culture: HepG2 cell-line cells were cultured in EMEM (ATCC 30-2033) medium supplemented with 10% fetal bovine serum (Biological Industries) in a humidified 5% CO2 incubator at 37° C.
ATPlite™ 1step Kit: ATPlite™ 1step kit (PerkinElmer) was used in a 384-wells format to assess potential liver toxicity using HepG2 cells. This is an ATP detection system based on firefly luciferase luminescence for the quantitative evaluation of proliferation and cytotoxicity of cells. ATP is a marker for cell viability because it is present in all metabolically active cells and its concentration declines very rapidly when the cells undergo necrosis or apoptosis.
According to an optimization process done to achieve uniform and consistent screening condition of molecules, the following protocol was established: Cells were seeded in 384-well, black-walled, clear-bottomed, at a density of 4000 cells per well […] and incubated overnight in their normal growth medium. On day two (48 hours before viability measurement), the tested compounds and the positive control were applied to the wells according to the plate design. […] 48 hours later, reconstituted lyophilized substrate solution was added to each well and the sealed 384-well microplate was mixed for 2 minutes at 1100 rpm in an orbital microplate and plates were incubated for 10 minutes in the dark at room temperature. Right after, luminescence was measured in the Tecan plate reader. To estimate the LD50 and LD25 values the data was fitted to sigmoidal regression using Prism-GraphPad. […]

For data set [2], the system named is Distal Tibial Injury (DTI) rats. As to the kind of experiment: Distal Tibial Injury (DTI) model, von Frey. It counts as in vivo, rat. The settings on record: 100 mg/kg oral, 6 hours post-dose. The method, then:
as §3, with “acclimation. During acclimation and throughout the entire study duration, animals were housed within a limited-access rodent facility and kept in groups with a maximum of 2-3 rats per polypropylene cage. The cages were fitted with solid bottoms and filled with sterile wood shavings as bedding material. Animals were provided ad libitum with a commercial, sterile rodent diet and had free access to drinking water that was supplied to each cage via polyethylene bottles with stainless steel sipper tubes.” for “acclimation.”

The structures appear in SMILES notation.

Chain of OCT2 (O15244 whole entry): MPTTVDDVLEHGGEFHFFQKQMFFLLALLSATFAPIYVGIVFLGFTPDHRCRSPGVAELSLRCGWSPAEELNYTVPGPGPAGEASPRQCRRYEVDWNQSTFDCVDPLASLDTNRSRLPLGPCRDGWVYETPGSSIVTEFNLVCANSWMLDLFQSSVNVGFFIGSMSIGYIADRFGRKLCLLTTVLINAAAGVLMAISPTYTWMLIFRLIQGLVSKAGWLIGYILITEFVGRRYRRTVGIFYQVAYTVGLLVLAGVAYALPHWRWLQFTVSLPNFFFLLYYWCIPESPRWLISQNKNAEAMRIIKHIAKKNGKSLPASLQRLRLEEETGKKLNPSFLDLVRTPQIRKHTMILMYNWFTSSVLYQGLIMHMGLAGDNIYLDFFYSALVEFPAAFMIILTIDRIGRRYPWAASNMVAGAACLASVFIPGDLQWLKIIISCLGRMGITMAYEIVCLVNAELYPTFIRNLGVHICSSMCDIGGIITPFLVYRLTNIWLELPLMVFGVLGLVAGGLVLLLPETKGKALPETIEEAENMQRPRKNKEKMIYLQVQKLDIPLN

As for `O=C(Cc1nccc(-n2cc(Cl)c3cc(Cl)cc(Cl)c32)n1)NC1COCC1O` (stereo not shown) [Compound 760], the MATE1 substrate entry with MATE1 is recorded as “not a transporter substrate”. For the same compound, the “Effect on GABAA” value in the data set with GABAA was “no effect”. In addition, on OCT2, the OCT2 substrate result was “not a transporter substrate”.

Regarding `O=C(Cc1cncc(-n2cc(Cl)c3cc(Cl)cc(Cl)c32)c1)N[C@@H]1COC[C@H]1O` [Compound 661], the IC50 at dopamine D2 is 10 µM. Besides, the Thermal withdrawal latency result in data set [1] is “completely reversed”. Besides, in the data set on HepG2 cells, the “HepG2 toxicity” value was “no evidence of toxicity up to the compound's limit of solubility”. For the same compound, the “Reversal of mechanical PWT” value in data set [2] is recorded as 45.9%.

The IC50 is the concentration needed to halve the response being measured.

For the origin of these results see patent US20260327211A1, “MODULATORS OF A POTASSIUM CHANNEL AND OF TRPV1 CHANNEL AND USES THEREOF” (Bsense Bio Therapeutics Ltd., priority 2023, published 2026).
